These results are taken from ChEMBL document CHEMBL2016486, “Synthesis of [Tyr-5-Ψ(CH2NMe)-Tyr-6]RA-VII, a reduced peptide bond analogue of RA-VII, an antitumor bicyclic hexapeptide” (Bioorg Med Chem Lett, 2012).

Values after ≈ are worked out from the molar mass of the structure shown.

The test system of the assay is P388. Kind of assay: Cytotoxicity against mouse P388 cells. The assay is classed as functional, cell-based.

With `COc1ccc(C[C@H]2C(=O)N[C@@H](C)C(=O)N(C)[C@H]3Cc4ccc(cc4)Oc4cc(ccc4OC)C[C@@H](C(=O)N[C@H](C)C(=O)N[C@@H](C)C(=O)N2C)N(C)C3)cc1`, the IC50 worked out at 5 µg/mL (≈ 6.61 µM).
The result for `COc1ccc(C[C@H]2C(=O)N[C@@H](C)C(=O)N(C)[C@H]3Cc4ccc(cc4)Oc4cc(ccc4OC)C[C@@H](C(=O)N[C@H](C)C(=O)N[C@@H](C)C(=O)N2C)N(C)C3=O)cc1` reads 0.0043 µg/mL (≈ 0.00558 µM).

By IC50 is commonly meant the concentration needed to halve the response being measured. Read a high IC50 as weaker potency.
